Settings: 283.15 K, Liquid, Vibrating tube method

CCCCCC(=O)OCC(COC(=O)CCCCC)(COC(=O)CCCCC)COC(=O)CCCCC [pentaerythritol tetrahexanoate]
Settings | mass density [kg/m3]
22895 kPa | 1017
22911 kPa | 1016.9
22928 kPa | 1017
22946 kPa | 1017
22963 kPa | 1017
22982 kPa | 1016.9
22997 kPa | 1017.1
23012 kPa | 1016.9
23030 kPa | 1017.2
23045 kPa | 1016.9
23060 kPa | 1017
23075 kPa | 1017
23093 kPa | 1017
23108 kPa | 1017.1
23124 kPa | 1017.1
23142 kPa | 1017.1
23157 kPa | 1017
23175 kPa | 1017
23191 kPa | 1017.1
23206 kPa | 1017.1
23221 kPa | 1017.2
23240 kPa | 1017
23255 kPa | 1017.2
23274 kPa | 1017.3
23290 kPa | 1017.1
23305 kPa | 1017
23323 kPa | 1017.2
23339 kPa | 1017.2
23354 kPa | 1017.2
23370 kPa | 1017.3
23389 kPa | 1017
23405 kPa | 1017.1
23422 kPa | 1017.2
23437 kPa | 1017.2
23456 kPa | 1017.3
23472 kPa | 1017.2
23488 kPa | 1017.3
23507 kPa | 1017.3
23523 kPa | 1017.3
23539 kPa | 1017.3
23555 kPa | 1017.3
23574 kPa | 1017.4
23590 kPa | 1017.3
23607 kPa | 1017.3
23627 kPa | 1017.4
23640 kPa | 1017.5
23659 kPa | 1017.4
23675 kPa | 1017.3
23691 kPa | 1017.3
23711 kPa | 1017.4
23726 kPa | 1017.3
23746 kPa | 1017.4
23762 kPa | 1017.4
23778 kPa | 1017.3
23794 kPa | 1017.3
23813 kPa | 1017.5
23830 kPa | 1017.5
23849 kPa | 1017.4
23866 kPa | 1017.5
23883 kPa | 1017.5
23902 kPa | 1017.5
23919 kPa | 1017.4
23935 kPa | 1017.5
23951 kPa | 1017.5
23971 kPa | 1017.5
23988 kPa | 1017.5
24004 kPa | 1017.5
24024 kPa | 1017.5
24041 kPa | 1017.6
24061 kPa | 1017.6
24078 kPa | 1017.6
24095 kPa | 1017.6
24111 kPa | 1017.6
24131 kPa | 1017.6
24148 kPa | 1017.7
24185 kPa | 1017.6
24202 kPa | 1017.5
24222 kPa | 1017.8
24239 kPa | 1017.6
24272 kPa | 1017.8
24327 kPa | 1017.7
24364 kPa | 1017.7
24382 kPa | 1017.7
24399 kPa | 1017.7
24419 kPa | 1017.6
24436 kPa | 1017.7
24457 kPa | 1017.8
24474 kPa | 1017.8
24492 kPa | 1017.9
24509 kPa | 1017.7
24530 kPa | 1017.9
24548 kPa | 1017.9
24565 kPa | 1017.9
24586 kPa | 1017.7
24603 kPa | 1017.7
24620 kPa | 1017.8
24641 kPa | 1018
24659 kPa | 1017.8
24676 kPa | 1017.9
24697 kPa | 1017.9
24715 kPa | 1017.9
24733 kPa | 1017.8
24754 kPa | 1017.8
24772 kPa | 1018
24789 kPa | 1018
24810 kPa | 1017.9
24828 kPa | 1017.9
24846 kPa | 1017.9
24867 kPa | 1017.9
24884 kPa | 1018
24903 kPa | 1017.8
24924 kPa | 1018
24942 kPa | 1018
24960 kPa | 1018.1
24981 kPa | 1018
25000 kPa | 1018
25018 kPa | 1018
25037 kPa | 1018.1
25059 kPa | 1018.2
25077 kPa | 1018
25095 kPa | 1018.1
25117 kPa | 1018.2
25135 kPa | 1018.2
25154 kPa | 1018.1
25175 kPa | 1018.1
25194 kPa | 1018.1
25212 kPa | 1018.1
25234 kPa | 1018.2
25253 kPa | 1018.2
25272 kPa | 1018.1
25290 kPa | 1018.1
25309 kPa | 1018.2
25331 kPa | 1018.2
25350 kPa | 1018.2
25372 kPa | 1018.2
25391 kPa | 1018.3
25410 kPa | 1018.2
25428 kPa | 1018.2
25451 kPa | 1018.2
25470 kPa | 1018.3
25489 kPa | 1018.2
25511 kPa | 1018.1
25530 kPa | 1018.3
25553 kPa | 1018.2
25572 kPa | 1018.3
